Numbers after ± are expanded uncertainties.
Details: 101.33 kPa, Liquid, Vibrating tube method

- mass density (278.15 K): 1105.53 ± 0.08 kg/m3
- mass density (288.15 K): 1105.77 ± 0.08 kg/m3
- mass density (298.15 K): 1104.36 ± 0.079 kg/m3
- mass density (308.15 K): 1101.63 ± 0.079 kg/m3
- mass density (318.15 K): 1097.84 ± 0.078 kg/m3
Compound: [2H]O[2H] [water-d2]
